The source of these data is US3998818A, “Trifluoroethylmercapto, -sulfinyl or -sulfonyl acetamidocephalosporins” (SmithKline Corporation, priority 1975, dated 1976).

What all share (format): cell-based
One experiment has as its system Shigella paradysentiae. In words: MIC by standard agar inclusion method (Shigella paradysentiae).
In the next experiment the test system is Kleb. pneumo. SK 1200. In words: MIC by standard agar inclusion method (Kleb. pneumo. SK 1200).
The test system of another experiment is E. coli SK 12140. Description: MIC by standard agar inclusion method (E. coli SK 12140). The settings on record: Escherichia coli, SK12140.
The next experiment relates to S. aureus HH 127. In words: MIC by standard agar inclusion method (S. aureus HH 127). To be noted: Staphylococcus aureus, HH127.
The next experiment relates to S. aureus Villaluz. Description: MIC by standard agar inclusion method (S. aureus Villaluz). To be noted: Staphylococcus aureus.
The test system of experiment [1] is Serratia marc. ATCC 13880. Description: MIC by standard agar inclusion method (Serratia marc. ATCC 13880). To be noted: ATCC13880.
A further experiment has as its system E. coli HH 33779. In words: MIC by standard agar inclusion method (E. coli HH 33779). To be noted: Escherichia coli, HH33779.
Another experiment relates to Strep. faecalis HH 34358. In words: MIC by standard agar inclusion method (Strep. faecalis HH 34358). To be noted: Enterococcus faecalis, HH34358.
Experiment [2] deals with Entero. aerogenes ATCC 13048. Description: MIC by standard agar inclusion method (Entero. aerogenes ATCC 13048). The settings on record: Klebsiella aerogenes, ATCC13048.
Another experiment relates to Kleb. pneumo. SK 4200. In words: MIC by standard agar inclusion method (Kleb. pneumo. SK 4200).
For a further experiment, the system named is Salmonella ATCC 12176. In words: MIC by standard agar inclusion method (Salmonella ATCC 12176). To be noted: ATCC12176.
In a further experiment the test system is Pseudo. aeruginosa HH63. Description: MIC by standard agar inclusion method (Pseudo. aeruginosa HH63). To be noted: Pseudomonas aeruginosa.
A further experiment concerns S. aureus SK 23390. Description: MIC by standard agar inclusion method (S. aureus SK 23390). The settings on record: Staphylococcus aureus, SK23390.

Values after ≈ are worked out from the molar mass of the structure shown. Some results are limits rather than exact numbers.

`CC(=O)OCC1=C(C(=O)O)N2C(=O)C(NC(=O)CSCC(F)(F)F)C2SC1` (centres unmarked) [Compound 1, 7-Trifluoroethylmercaptoacetamidocephalosporanic acid]: the minimal inhibitory concentration (MIC) (as a rule, the least concentration at which growth counts as inhibited) is 6.3 µg/mL (≈ 14.7 µM) against Shigella paradysentiae; 3.1 µg/mL (≈ 7.24 µM) against Kleb. pneumo. SK 1200; 6.3 µg/mL (≈ 14.7 µM) against E. coli SK 12140; 0.4 µg/mL (≈ 0.934 µM) in the experiment on S. aureus HH 127; 25 µg/mL (≈ 58.4 µM) in the experiment on S. aureus Villaluz; > 200 µg/mL in [1]. The minimum inhibitory concentration (MIC) in the experiment on E. coli HH 33779 is 50 µg/mL (≈ 117 µM); in the experiment with Strep. faecalis HH 34358, 25 µg/mL (≈ 58.4 µM); in experiment [2], 50 µg/mL (≈ 117 µM); against Kleb. pneumo. SK 4200, 6.3 µg/mL (≈ 14.7 µM); with Salmonella ATCC 12176 it was 6.3 µg/mL (≈ 14.7 µM); in the experiment with Pseudo. aeruginosa HH63, > 200 µg/mL. In the experiment on S. aureus SK 23390, this molecule had a minimum inhibitory concentration (MIC) of 0.4 µg/mL (≈ 0.934 µM).
In the case of `Cc1nnc(SCC2=C(C(=O)O)N3C(=O)C(NC(=O)CSCC(F)(F)F)[C@H]3SC2)s1` (some centres unmarked) [Compound 2, 7-Trifluoroethylmercaptoacetamido-3-(5-methyl-1,3,4-thiadiazol-2-ylthiomethyl)-3-cephem-4-carboxylic acid], the MIC in the experiment with Shigella paradysentiae was 1.6 µg/mL (≈ 3.2 µM); against Kleb. pneumo. SK 1200 it was 3.1 µg/mL (≈ 6.19 µM); in the experiment with E. coli SK 12140, 6.3 µg/mL (≈ 12.6 µM); with S. aureus HH 127 it was 0.2 µg/mL (≈ 0.4 µM); in the experiment on S. aureus Villaluz, 25 µg/mL (≈ 49.9 µM); in [1] it was > 200 µg/mL. Moreover, the MIC in the experiment with E. coli HH 33779 was 12.5 µg/mL (≈ 25 µM); in the experiment with Strep. faecalis HH 34358 it was 6.3 µg/mL (≈ 12.6 µM); in experiment [2], 25 µg/mL (≈ 49.9 µM); against Kleb. pneumo. SK 4200, 6.3 µg/mL (≈ 12.6 µM); against Salmonella ATCC 12176, 6.3 µg/mL (≈ 12.6 µM); in the experiment with Pseudo. aeruginosa HH63 it was > 200 µg/mL. The molecule further came in with a minimum inhibitory concentration (MIC) in the experiment on S. aureus SK 23390 of 0.1 µg/mL (≈ 0.2 µM).
`Cn1nnnc1SCC1=C(C(=O)O)N2C(=O)C(NC(=O)CSCC(F)(F)F)[C@H]2SC1` (some centres unmarked) [Compound 3, 7-Trifluoroethylmercaptoacetamido-3-(1-methyltetrazol-5-ylthiomethyl)-3-cephem-4-carboxylic acid]: the MIC against Shigella paradysentiae is 0.4 µg/mL (≈ 0.826 µM); with Kleb. pneumo. SK 1200 it was 1.6 µg/mL (≈ 3.3 µM); against E. coli SK 12140, 1.6 µg/mL (≈ 3.3 µM); against S. aureus HH 127, 0.2 µg/mL (≈ 0.413 µM); against S. aureus Villaluz, 12.5 µg/mL (≈ 25.8 µM); in experiment [1] it was > 200 µg/mL. Further, the MIC against E. coli HH 33779 was 6.3 µg/mL (≈ 13 µM); in the experiment with Strep. faecalis HH 34358 it was 12.5 µg/mL (≈ 25.8 µM); in experiment [2], 6.3 µg/mL (≈ 13 µM); in the experiment on Kleb. pneumo. SK 4200 it was 3.1 µg/mL (≈ 6.4 µM); in the experiment with Salmonella ATCC 12176, 0.8 µg/mL (≈ 1.65 µM); with Pseudo. aeruginosa HH63 it was > 200 µg/mL. In the experiment on S. aureus SK 23390, this molecule came in with an MIC of 0.1 µg/mL (≈ 0.206 µM).
On to `Cn1nnnc1SCC1=C(C(=O)O)N2C(=O)C(NC(=O)C[S+]([O-])CC(F)(F)F)[C@H]2SC1` (some centres unmarked) [Compound 4, 7-Trifluoroethylsulfinylacetamido-3-(1-methyltetrazol-5-ylthiomethyl)-3-cephem-4-carboxylic acid], for which the minimum inhibitory concentration (MIC) in the experiment on Shigella paradysentiae is 0.4 µg/mL (≈ 0.799 µM); with Kleb. pneumo. SK 1200, 0.4 µg/mL (≈ 0.799 µM); in the experiment on E. coli SK 12140, 0.8 µg/mL (≈ 1.6 µM); against S. aureus HH 127, 1.6 µg/mL (≈ 3.2 µM); against S. aureus Villaluz, 100 µg/mL (≈ 200 µM); in [1], > 200 µg/mL. Besides, the MIC against E. coli HH 33779 was 3.1 µg/mL (≈ 6.19 µM); in the experiment on Strep. faecalis HH 34358 it was 100 µg/mL (≈ 200 µM); in experiment [2], 6.3 µg/mL (≈ 12.6 µM); against Kleb. pneumo. SK 4200, 0.8 µg/mL (≈ 1.6 µM); with Salmonella ATCC 12176, 1.6 µg/mL (≈ 3.2 µM); in the experiment on Pseudo. aeruginosa HH63, > 200 µg/mL. For the same molecule, inhibition of growth against S. aureus SK 23390 (MIC) required 0.8 µg/mL (≈ 1.6 µM).
`Cn1nnnc1SCC1=C(C(=O)O)N2C(=O)C(NC(=O)CS(=O)(=O)CC(F)(F)F)[C@H]2SC1` (some centres unmarked) [Compound 5, 7-Trifluoroethylsulfonylacetamido-3-(1-methyltetrazol-5-ylthiomethyl)-3-cephem-4-carboxylic acid]: the MIC in the experiment on Shigella paradysentiae was 6.3 µg/mL (≈ 12.2 µM); in the experiment on Kleb. pneumo. SK 1200, 3.1 µg/mL (≈ 6 µM); in the experiment with E. coli SK 12140, 6.3 µg/mL (≈ 12.2 µM); in the experiment on S. aureus HH 127 it was 3.1 µg/mL (≈ 6 µM); against S. aureus Villaluz, 200 µg/mL (≈ 387 µM); in experiment [1] it was > 200 µg/mL. In addition, the MIC was 12.5 µg/mL (≈ 24.2 µM) against E. coli HH 33779; > 200 µg/mL with Strep. faecalis HH 34358; 50 µg/mL (≈ 96.8 µM) in experiment [2]; 3.1 µg/mL (≈ 6 µM) in the experiment on Kleb. pneumo. SK 4200; 6.3 µg/mL (≈ 12.2 µM) with Salmonella ATCC 12176; > 200 µg/mL against Pseudo. aeruginosa HH63. Besides, the MIC against S. aureus SK 23390 worked out at 3.1 µg/mL (≈ 6 µM).
